# Measured values published in patent US7410974B2, “Halogenated Quinazolinyl nitrofurans as antibacterial agents” (Ulysses Pharmaceutical Products, Inc., priority 2003, dated 2008).
# Like-named read-outs stand apart in the source and are kept apart here.
# Key:
# [1] = tested on: Y. enterocolytica ATCC 23715; assay: MIC broth microdilution (NCCLS); format: cell-based, Yersinia enterocolytica; conditions: Yersinia, ATCC23715, read-out: MIC
# Description: (§1) Minimal Inhibitory Concentration (MIC) Determination. Bacteria (primary strain panel, TABLE 1). Susceptibility tests were performed following the recommendations from the National Committee for Clinical Standards (NCCLS). The MICs were determined by a broth microdilution technique using a final volume of 100 μl of cation-adjusted Mueller Hinton Broth (MHBCA) and a bacterial inoculum of 10^5-10^6 Colony Forming Units (CFU)/ml. The inocula were verified and precisely determined by applying 10-μl drops of 10-fold dilutions onto Triptic Soy Agar plates. The CFU were counted after an incubation of 24 h at 35° C. Any experiment showing an inoculum that was more or less than 10^5-10^6 CFU/ml was rejected. Control antibiotics and test compounds were prepared at a concentration equivalent to 2-fold the highest desired final concentration. Compounds were then diluted directly in the 96-well microtiter plates by serial 2-fold dilutions using a multichannel pipette. Microtiter plates were incubated during 24 h at 35° C. and growth was recorded by using a microtiterplate reader at 650 nm as well as by visual observation. The MIC was defined as the lowest concentration of compound yielding no visible growth. […] Fastidious bacteria. The medium used for Listeria monocytogenes, Neisseria meningitidis, and Campylobacter jejuni was MHBCA containing 2% laked horse blood. The medium used for Haemophilus influenzae and Branhamella (Moraxella) catarrhalis was HTM as recommended by the NCCLS. Cultures of these fastidious bacteria were incubated at 35° C. in a 5% CO2 atmosphere. […] The medium used for Bacteroides fragilis was Wilkins Chalgren broth and growth was allowed under an anaerobic atmosphere at 35° C. for 48 hours.
# [2] = tested on: S. aureus ATCC 29213; assay: MIC broth microdilution (NCCLS); format: cell-based, Staphylococcus aureus; conditions: Staphylococcus aureus, ATCC29213; S. aureus ATCC 29213; read-out: MIC
# Description: as §1
# [3] = tested on: E. coli ATCC 25922; assay: MIC broth microdilution (NCCLS); format: cell-based, Escherichia coli
# Description: as §1
# [4] = tested on: E. faecium VanA; assay: MIC broth microdilution, antibiotic resistant strain panel; format: cell-based; conditions: Enterococcus faecium
# Description: as §1
# (§2) Finally, compounds were also tested against populations of various clinical strains (antibiotic resistant strain panel, TABLE 1).
# [5] = tested on: S. epidermidis ATCC 12228; assay: MIC broth microdilution (NCCLS); format: cell-based, Staphylococcus epidermidis; conditions: Staphylococcus epidermidis, ATCC12228; S. epidermidis ATCC 12228; read-out: MIC
# Description: as §1
# [6] = tested on: L. monocytogenes ATCC 13932; assay: MIC broth microdilution (NCCLS), fastidious bacteria; format: cell-based; conditions: Listeria monocytogenes, ATCC13932, MHBCA with 2% laked horse blood, 5% CO2
# Description: as §1
# [7] = tested on: M. smegmatis ATCC 19420; assay: as above; format: cell-based, Mycobacterium smegmatis; conditions: Mycolicibacterium smegmatis, ATCC19420, read after 48 hours
# Description: as §1
# [8] = tested on: E. faecium ATCC 35667; assay: MIC broth microdilution (NCCLS); format: cell-based, Enterococcus faecium; conditions: Enterococcus faecium, ATCC35667, E. faecium ATCC 35667; read-out: MIC
# Description: as §1
# [9] = tested on: E. faecalis ATCC 29212; assay: MIC broth microdilution (NCCLS); format: cell-based, Enterococcus faecalis; conditions: Enterococcus faecalis, ATCC29212; E. faecalis ATCC 29212; read-out: MIC
# Description: as §1
# [10] = tested on: S. aureus MRSA COL; assay: MIC broth microdilution (NCCLS); format: cell-based, Staphylococcus aureus; conditions: Staphylococcus aureus, MRSA
# Description: as §1, with “hours. […]” for “hours.”
# [11] = tested on: S. saprophyticus ATCC 15305; assay: MIC broth microdilution (NCCLS); format: cell-based, Staphylococcus saprophyticus; conditions: Staphylococcus saprophyticus, ATCC15305; S. saprophyticus ATCC 15305; read-out: MIC
# Description: as §1
# [12] = tested on: A. baumannii ATCC 19606; assay: MIC broth microdilution (NCCLS); format: cell-based, Acinetobacter baumannii; conditions: Acinetobacter baumannii, ATCC19606, read-out: MIC
# Description: as §1
# [13] = tested on: E. coli Ec022c (EIEC); assay: MIC broth microdilution, E. coli strains; format: cell-based; conditions: Escherichia coli, pathotype EIEC
# Description: as §1, §2
# [14] = tested on: E. coli Ec119c (EIEC); assay: MIC broth microdilution, E. coli strains; format: cell-based; conditions: Escherichia coli, pathotype EIEC
# Description: as §1, §2
# [15] = tested on: E. coli d25-ALR-pen14 (O157:H7); assay: MIC broth microdilution, E. coli strains; format: cell-based; conditions: Escherichia coli
# Description: as §1, §2
# [16] = tested on: E. coli Ec118c (EIEC); assay: MIC broth microdilution, E. coli strains; format: cell-based; conditions: Escherichia coli, pathotype EIEC
# Description: as §1, §2
# [17] = tested on: E. coli Ec117c (EIEC); assay: MIC broth microdilution, E. coli strains; format: cell-based; conditions: Escherichia coli, pathotype EIEC
# Description: as §1, §2
# [18] = tested on: E. coli ATCC 35150 (O157:H7); assay: MIC broth microdilution, E. coli strains; format: cell-based; conditions: Escherichia coli, ATCC35150
# Description: as §1, §2
# [19] = tested on: E. coli Ec027c (EIEC); assay: MIC broth microdilution, E. coli strains; format: cell-based; conditions: Escherichia coli, pathotype EIEC
# Description: as §1, §2
# [20] = tested on: E. coli d4-OLR-pen10 (O157:H7); assay: MIC broth microdilution, E. coli strains; format: cell-based; conditions: Escherichia coli
# Description: as §1, §2
# [21] = tested on: B. fragilis ATCC 25285; assay: MIC broth microdilution (NCCLS), anaerobic; format: cell-based; conditions: Bacteroides fragilis, ATCC25285; B. fragilis ATCC 25285; Wilkins Chalgren broth, anaerobic, 48 hours; read-out: MIC
# Description: as §1
# [22] = tested on: B. catarrhalis ATCC 8176; assay: MIC broth microdilution (NCCLS), fastidious bacteria; format: cell-based, Branhamella (Moraxella) catarrhalis; conditions: Moraxella catarrhalis, ATCC8176, HTM, 5% CO2
# Description: as §1
# [23] = tested on: H. influenzae ATCC 49247; assay: Minimal Bactericidal Concentration (MBC); format: cell-based; conditions: Haemophilus influenzae, ATCC49247, 99.9% killing
# Description: (§3) Minimal Bactericidal Concentration (MBC). After the microtiter plates were read for the determination of the MIC, a 10-μl sample of each clear well (at least 5 wells without visible growth) was applied onto TSA plates for viable counts determination.
# (§4) Petri dishes were incubated at 35° C. for exactly 24 h and bacterial colonies were counted.
# [24] = tested on: H. influenzae ATCC 49766; assay: Minimal Bactericidal Concentration (MBC); format: cell-based; conditions: Haemophilus influenzae, ATCC49766, 99.9% killing
# Description: as §3, §4
# [25] = tested on: H. influenzae ATCC 49247; assay: MIC broth microdilution (NCCLS), fastidious bacteria; format: cell-based; conditions: Haemophilus influenzae, ATCC49247, HTM, 5% CO2
# Description: as §1
# [26] = tested on: H. influenzae ATCC 49766; assay: as above; format: cell-based; conditions: Haemophilus influenzae, ATCC49766, HTM, 5% CO2
# Description: as §1
# [27] = tested on: S. typhimurium ATCC14028; assay: MIC broth microdilution (NCCLS); format: cell-based, Salmonella typhimurium; conditions: Salmonella enterica; S. typhimurium ATCC14028; read-out: MIC
# Description: as §1
# [28] = tested on: B. catarrhalis ATCC 8176; assay: Minimal Bactericidal Concentration (MBC); format: cell-based, Branhamella (Moraxella) catarrhalis; conditions: Moraxella catarrhalis, ATCC8176, 99.9% killing
# Description: as §3, §4
# [29] = tested on: MRSA strain Sa228c; assay: MIC broth microdilution, antibiotic resistant strain panel; format: cell-based, Staphylococcus aureus; conditions: Staphylococcus aureus; multi-resistant MRSA strain Sa228c; read-out: MIC
# Description: as §1, §2
# [30] = tested on: MRSA strain Sa211c; assay: as above; format: cell-based, Staphylococcus aureus; conditions: Staphylococcus aureus; multi-resistant MRSA strain Sa211c; read-out: MIC
# Description: as §1, §2
# [31] = tested on: MRSA strain Sa220c; assay: as above; format: cell-based, Staphylococcus aureus; conditions: Staphylococcus aureus; multi-resistant MRSA strain Sa220c; read-out: MIC
# Description: as §1, §2
# [32] = tested on: MRSA strain Sa249c; assay: as above; format: cell-based, Staphylococcus aureus; conditions: Staphylococcus aureus; multi-resistant MRSA strain Sa249c; read-out: MIC
# Description: as §1, §2
# [33] = tested on: MRSA strain Sa234c; assay: as above; format: cell-based, Staphylococcus aureus; conditions: Staphylococcus aureus; multi-resistant MRSA strain Sa234c; read-out: MIC
# Description: as §1, §2
# [34] = tested on: MRSA strain Sa224c; assay: as above; format: cell-based, Staphylococcus aureus; conditions: Staphylococcus aureus; multi-resistant MRSA strain Sa224c; read-out: MIC
# Description: as §1, §2
# [35] = tested on: MRSA strain Sa253c; assay: as above; format: cell-based, Staphylococcus aureus; conditions: Staphylococcus aureus; multi-resistant MRSA strain Sa253c; read-out: MIC
# Description: as §1, §2
# [36] = tested on: MRSA strain Sa248c; assay: as above; format: cell-based, Staphylococcus aureus; conditions: Staphylococcus aureus; multi-resistant MRSA strain Sa248c; read-out: MIC
# Description: as §1, §2
# [37] = tested on: MRSA strain Sa212c; assay: as above; format: cell-based, Staphylococcus aureus; conditions: Staphylococcus aureus; multi-resistant MRSA strain Sa212c; read-out: MIC
# Description: as §1, §2
# [38] = Escherichia coli, ATCC25922, E. coli ATCC 25922 (Reference), read-out: MIC
# [39] = S. aureus MRSA COL, read-out: MIC
SMILES,MIC [1],MIC [2],"MIC [3, 38]",MIC [5],MIC [8],MIC [9],"MIC [10, 39]",MIC [11],MIC [12],MIC [22],MBC [23],MBC [24],MIC [25],MIC [26],MBC [28],also measured
CO[C@H]1/C=C/O[C@@]2(C)Oc3c(C)c(O)c4c(O)c(c(/C=N/N5CCN(C)CC5)c(O)c4c3C2=O)NC(=O)/C(C)=C\C=C\[C@H](C)[C@H](O)[C@@H](C)[C@@H](O)[C@@H](C)[C@H](OC(C)=O)[C@@H]1C [Rifampicin],8 µg/mL,0.008 to 0.015 µg/mL,8 µg/mL,0.004 to 0.008 µg/mL,32 µg/mL,0.5 to 1 µg/mL,0.008 to 0.015 µg/mL,0.03 µg/mL,4 µg/mL,,,,,,,MIC [4]: > 128 µg/mL; MIC [6]: 0.06 µg/mL; MIC [7]: 8 µg/mL
CN(C)[C@@H]1C(O)=C(C(N)=O)C(=O)[C@@]2(O)C(O)=C3C(=O)c4c(O)cccc4[C@@](C)(O)[C@H]3C[C@@H]12 [Tetracycline],> 32 µg/mL,0.5 to 1 µg/mL,1 to 2 µg/mL,,,16 to 32 µg/mL,2 µg/mL,1 µg/mL,16 µg/mL,,,,,,,MIC [13]: 2 µg/mL; MIC [14]: > 32 µg/mL; MIC [15]: > 32 µg/mL; MIC [16]: 4 µg/mL; MIC [17]: > 32 µg/mL; MIC [18]: 2 µg/mL; MIC [19]: > 32 µg/mL; MIC [20]: > 32 µg/mL; MIC ([3]; E. coli ATCC 25922 (Reference)): 2 µg/mL; MIC [21]: 0.25 µg/mL
CO/N=C(\C(=O)N[C@@H]1C(=O)N2C(C(=O)O)=C(COC(C)=O)CS[C@H]12)c1csc(N)n1 [Cefotaxime],> 2 µg/mL,1 to 2 µg/mL,0.06 to 0.12 µg/mL,0.5 to 1 µg/mL,16 µg/mL,2 to 8 µg/mL,,8 µg/mL,16 µg/mL,0.03 µg/mL,0.12 µg/mL,0.008 µg/mL,0.12 µg/mL,0.008 µg/mL,0.06 µg/mL,"MIC ([4]; multi-resistant E. faecium VanA, read-out: MIC): > 128 µg/mL; MIC [10]: 512 µg/mL; MIC [27]: > 2 µg/mL"
CC[C@H]1OC(=O)[C@H](C)[C@@H](O[C@H]2C[C@@](C)(OC)[C@@H](O)[C@H](C)O2)[C@H](C)[C@@H](O[C@@H]2O[C@H](C)C[C@H](N(C)C)[C@H]2O)[C@](C)(O)C[C@@H](C)C(=O)[C@H](C)[C@@H](O)[C@]1(C)O [Erythromycin],,0.5 µg/mL,64 µg/mL,0.5 µg/mL,2 µg/mL,2 to 4 µg/mL,0.25 µg/mL,0.25 µg/mL,,0.06 µg/mL,2 µg/mL,16 µg/mL,2 µg/mL,8 µg/mL,0.12 µg/mL,MIC [29]: > 32 µg/mL; MIC [30]: > 32 µg/mL; MIC [31]: 0.5 µg/mL; MIC [32]: > 128 µg/mL; MIC [33]: > 32 µg/mL; MIC [34]: > 32 µg/mL; MIC [35]: > 128 µg/mL; MIC [36]: > 128 µg/mL; MIC [37]: > 32 µg/mL
